Converted amounts (≈) assume the structure as drawn. Read-outs that look alike come from different tables or passages of the source. Marks after values point to notes of the source that are not given here.
Key:
[1] = tested on: murine peritoneal macrophages RAW 264.7; test: Cytotoxicity assay on RAW 264.7 (LDH release); format: cell-based
Protocol: Murine peritoneal macrophages of the cell line RAW 264.7 were obtained from the American Type Culture Collection (ATCC, Rockville, MD, USA), and cultured at 37 °C with CO2 at 5% in DMEM-F12 supplemented with 10% fetal bovine serum (FBS; Hyclone^TM, Logan, UT, USA) and gentamicin (50 μg/mL). RAW 264.7 cells (5 × 10^5 cells/mL) were cultured and incubated for 24 h with the riparins A, B, C, D, E and F at the final concentration of 25 µg/mL […]. The cytotoxicity assay was performed by LDH assay. The release of LDH (cytoplasmic lactate dehydrogenase enzyme) was determined using 50 μL of culture supernatant with 100 μL of LDH substrate plus and 5 μL ferric alum (5 mg/mL), at 37 °C for 3 min. Then, 100 μL of the NAD solution and phenazine methosulphate were added to the mixture, maintaining the temperature at 37 °C for 5 min (Labrax Commercial Kit, Clontech, Palo Alto, CA, USA). LDH is an oxidoreductase which catalyzes the interconversion of lactate and pyruvate and, for being a stable cytosolic enzyme, after damage to cell membrane it is released in the cellular environment and because of this LDH is an indirect indicator of cytotoxicity. LDH concentration was determined by colorimetry at 492 nm. The specific release of LDH was calculated as percentage of the controls (not treated cells as negative control and cells treated with 1%Triton X-100 as positive control).
(§1) The obtained data were evaluated by one-way analysis of variance (ANOVA) followed by a Student Newman Keuls post hoc test. The data concerning release percentage of cytoplasmatic enzyme lactate dehydrogenase (LDH) were reported by mean ± standard deviation and evaluated by one-way analysis of variance (ANOVA) followed by a Tukey post hoc test. In all cases differences were considered significant if p < 0.05, the means and respective standard errors were analyzed in the Graph Pad Prism version 5.0 for Windows software (GraphPad Software Incorporated, San Diego, CA, USA).

[2] = tested on: NCIH-292 (lung carcinoma); test: Cytotoxicity against tumor cell lines (MTT); format: cell-based; details: Homo sapiens, NCI-H292, 72 h, 95% confidence interval in brackets, read-out: IC50 values and confidence intervals, NCIH-292
Protocol: (§2) Cells were maintained at 37 °C with 5% CO2 in RPMI 1640 (Himedia^TM, Mumbai, India) or DMEM medium (Gibco^TM, Grand Island, NY, USA) supplemented with 2 mM glutamine, 100 U/mL penicillin, 100 μg/mL streptomycin. The antiproliferative activities of riparins were evaluated in the following human cancer cells lineage: HL-60 (pro-myelocytic leukemia), NCIH-292 (lung carcinoma), and HEP-2 (laryngeal carcinoma) obtained from the Rio de Janeiro Cell Bank (RJ-Brazil). For all experiments, 100 µL of tumor cells were plated in 96-well plates (6 × 10^4 cells/cm^2 for adherent cells or 9 × 10^4 cells/cm^2 for leukemia). Tested compounds (0.1–25 μg/mL) dissolved in 1% DMSO (100 µL) were added to each well and incubated for 72 h. Control groups received the same amount of DMSO. After 69 h of treatment, 25 μL of MTT (5 mg/mL) were added. Three hours later, the MTT formazan product was dissolved in 100 μL of DMSO, and absorbance was measured at 595 nm using a multiplate reader (Thermo Plate®, TP Reader, São Paulo, SP, Brasil).
as §1

[3] = tested on: HL-60 (pro-myelocytic leukemia); test: Cytotoxicity against tumor cell lines (MTT); format: cell-based; details: Homo sapiens, 72 h, 95% confidence interval in brackets, read-out: IC50 values and confidence intervals, HL-60
Protocol: as §2, §1

[4] = Scavenging activity of nitric oxide (nitrite production induced by SNP, Griess reaction); details: for IC50 Nitrite: nitrite formation
Protocol: (§3) For the in vitro antioxidant tests the samples were emulsified in 0.05% Tween 80 dissolved in saline 0.9% (used as the vehicle) and tested at concentrations of 1, 5, 10, 25 and 100 µg/mL. The samples for the cytotoxicity tests were diluted in pure and sterile DMSO and tested at concentrations of 25 µg/mL.
Nitric oxide was generated from spontaneous decomposition of sodium nitroprusside in 20 mM phosphate buffer (pH 7.4). Once generated, NO interacts with oxygen to produce nitrite ions, which are measured by the Griess reaction. The reaction mixture (1 mL) containing 10 mM sodium nitroprusside (SNP) in phosphate buffer and the riparins at various concentrations of 1, 5, 10, 25 and 100 µg/mL were incubated at 37 °C for 1 h. A 0.5 mL aliquot was taken and homogenized with 0.5 mL Griess reagent. The absorbance of chromophore was measured at 540 nm. Percent inhibition of generated nitric oxide was measured by comparing the absorbance values of negative controls (only 10 mM sodium nitroprusside and vehicle) to assay preparations. Results were expressed as percentage of nitrite formed by SNP alone.

[5] = Hydroxyl radical scavenging activity (2-deoxyribose degradation, Fenton reaction); details: for IC50 OH radical: hydroxyl radical content
Protocol: as §3
The formation of OH radicals from Fenton reagents was quantified using the condensation product of the 2-deoxyribose oxidative degradation product, malonaldehyde, with 2-thiobarbituric acid (TBA). Briefly, typical reactions were started by the addition of Fe^2+ (FeSO4 6 mM final concentration) to solutions containing 5 mM 2-deoxyribose, 100 mM H2O2 and 20 mM phosphate buffer (pH 7.2). In order to determine the antioxidant activity of the riparins against the hydroxyl radical, individual tests were performed on each one of the six substances, in which different concentrations of the riparins were added to the system before Fe^2+ addition (Rip-A; Rip-B; Rip-C; Rip-D; Rip-E and Rip-F). Reactions were carried out for 15 min at room temperature and were quenched by the addition of phosphoric acid 4% (v/v), followed by TBA 1% (thiobarbituric acid, v/v in 50 μL NaOH). The solutions were boiled for 15 min to 95 °C and then cooled at room temperature. The absorbance was measured at 532 nm and the results were expressed as MDA equivalents formed by Fe^2+ and H2O2 [25].

[6] = Antioxidant potential against the formation of TBARS (AAPH-induced lipid peroxidation of egg yolk homogenate); details: for IC50 TBARS: TBARS production
Protocol: as §3
The TBARS assay was employed to quantify lipid peroxidation and an adapted TBARS method was used to measure the antioxidant capacity of the riparins (Rip-A, -B, -C, -D, -E and -F) using egg yolk homogenate as lipid rich substrate. Egg yolk was homogenized (1% w/v) in 20 mM phosphate buffer (pH 7.4), 1 mL of homogenate was sonicated and then homogenized with 0.1 mL of the samples at concentrations of 1, 5, 10, 25 and 100 µg/mL. Lipid peroxidation was induced by the addition of 0.1 mL of 2,2'-azobis(2-methylpropionamidine) dihydrochloride solution (AAPH; 0.12 M). Control was evaluated with only the vehicle. Reactions were carried out for 15 minutes at 37 °C. After cooling, samples (0.5 mL) were centrifuged with 0.5 mL of trichloroacetic acid (15%) at 1,200 ×g for 10 min. An aliquot of 0.5 mL from supernatant was mixed with 0.5 mL TBA (0.67%) and heated at 95 °C for 30 min. After cooling, sample absorbance was measured using a spectrophotometer at 532 nm. The results were expressed as percentage of TBARS formed by AAPH alone (induced control).

[7] = tested on: tumor cells lines (leukemia and lung and laryngeal carcinoma); test: Cytotoxicity on tumor cell lines, summary statements over the lines (MTT); format: cell-based; details: Homo sapiens
Protocol: as §3, §2

[8] = tested on: HEP-2 (laryngeal carcinoma); test: Cytotoxicity against tumor cell lines (MTT); format: cell-based; details: Homo sapiens, 72 h, 95% confidence interval in brackets, read-out: IC50 values and confidence intervals, HEP-2
Protocol: as §2, §1

[9] = 140 μg/mL (standard antioxidant)

Molecule	IC50 [2] [µg/mL]	IC50 [3] [µg/mL]	Nitrite Production (% induced by SNP) ([4]; 1 μg/mL)	Nitrite Production (% induced by SNP) ([4]; 5 μg/mL)	Nitrite Production (% induced by SNP) ([4]; 10 μg/mL)	Nitrite Production (% induced by SNP) ([4]; 25 μg/mL)	Nitrite Production (% induced by SNP) ([4]; 100 μg/mL)	IC50 Nitrite [4] [µg/mL]	2-Deoxyribose degradation (%) ([5]; 1 μg/mL)	2-Deoxyribose degradation (%) ([5]; 5 μg/mL)	2-Deoxyribose degradation (%) ([5]; 10 μg/mL)	2-Deoxyribose degradation (%) ([5]; 25 μg/mL)	2-Deoxyribose degradation (%) ([5]; 100 μg/mL)	IC50 OH radical [5] [µg/mL]	LDH % Release ([1]; 25 µg/mL, RAW 264.7) [%]	TBARS levels (% AAPH) ([6]; 1 μg/mL)	TBARS levels (% AAPH) ([6]; 5 μg/mL)	TBARS levels (% AAPH) ([6]; 10 μg/mL)	TBARS levels (% AAPH) ([6]; 25 μg/mL)	TBARS levels (% AAPH) ([6]; 100 μg/mL)	also measured
Triton X-100 [Triton X-100 1%, reference compound]	–	–	–	–	–	–	–	–	–	–	–	–	–	–	–	–	–	–	–	–	LDH % Release [1]: 99.96%
O=C(NCCc1ccccc1)c1c(O)cccc1O [Rip-E, 2,6-Dihydroxy-N-phenethylbenzamide]	> 25	1.9 (≈ 7.38 µM)	65.9 ± 1.30 ^a %	37.7 ± 0.95 ^a %	25.1 ± 1.37 ^a %	20.1 ± 0.71 ^a %	15.4 ± 1.11 ^a %	0.5224 (≈ 2.03 µM)	79.9 ± 0.64 ^a %	62.2 ± 2.14 ^a %	53.4 ± 1.79 ^a %	51.4 ± 1.47 ^a %	49.4 ± 0.85 ^a %	1.054 (≈ 4.1 µM)	96.91	41.4 ± 0.69 ^a %	38.6 ± 0.63 ^a %	35.5 ± 0.37 ^a %	31.3 ± 0.76 ^a %	28.2 ± 0.39 ^a %	LDH % Release ([1]; 25 µg/mL, RAW 264.7, listed as riparin E): greater than 80%; IC50 TBARS [6]: 0.7821 µg/mL (≈ 3.04 µM); melting point: 155 °C; IC50 ([7]; leukemia and lung and laryngeal carcinoma, read-out: IC50 values on neoplastic cells (range over cell lines)): 1.9 to 11.4 µg/mL (≈ 7.38 to 44.3 µM); inhibition at 25 µg/mL ([7]; tumor cells lines, cytotoxicity samples tested at 25 µg/mL, read-out: cell growth inhibition rates): > 70%
COc1ccc(CCNC(=O)c2ccccc2)cc1OC [Rip-B, N-[2-(3,4-Dimethoxyphenyl)ethyl]benzamide]	> 25	> 25	75.8 ± 1.02 ^a %	34.1 ± 1.85 ^a %	29.1 ± 2.00 ^a %	23.1 ± 0.97 ^a %	20.6 ± 0.98 ^a %	0.7948 (≈ 2.79 µM)	98.4 ± 0.39 ^a %	79.8 ± 1.34 ^a %	58.5 ± 0.85 ^a %	47.7 ± 0.44 ^a %	47.2 ± 0.43 ^a %	1.639 (≈ 5.74 µM)	17.31	44.5 ± 1.31 ^a %	40.4 ± 0.85 ^a %	38.3 ± 1.05 ^a %	36.5 ± 1.21 ^a %	29.7 ± 1.31 ^a %	IC50 [8]: > 25 µg/mL; IC50 TBARS [6]: 1.032 µg/mL (≈ 3.62 µM); melting point: 90 °C
Cc1c(C)c2c(c(C)c1O)CCC(C)(C(=O)O)O2 (centres unmarked) [Trolox, reference compound]	–	–	–	–	–	–	–	–	–	–	–	–	–	–	–	–	–	–	–	–	Nitrite Production (% induced by SNP) [4, 9]: 40.2 ± 2.80 ^a %; 2-Deoxyribose degradation (%) [5, 9]: 21.4 ± 0.95 ^a %; TBARS levels (% AAPH) [6, 9]: 55.3 ± 6.48 ^a %
O=C(NCCc1ccccc1)c1ccccc1 [Rip-A, N-Phenethylbenzamide]	> 25	> 25	75.1 ± 1.31 ^a %	29.1 ± 0.61 ^a %	29.2 ± 2.05 ^a %	24.3 ± 0.62 ^a %	20.4 ± 1.20 ^a %	0.8404 (≈ 3.73 µM)	97.1 ± 0.78 ^a %	76.9 ± 1.10 ^a %	54.5 ± 0.85 ^a %	49.6 ± 0.89 ^a %	44.8 ± 0.30 ^a %	1.501 (≈ 6.66 µM)	28.13	40.9 ± 1.77 ^a %	38.1 ± 0.49 ^a %	36.7 ± 0.66 ^a %	35.1 ± 0.88 ^a %	25.8 ± 0.48 ^a %	IC50 [8]: > 25 µg/mL; IC50 TBARS [6]: 1.147 µg/mL (≈ 5.09 µM)

Reference: paper PMC6271893, “In Vitro Antioxidant and Cytotoxic Activity of Some Synthetic Riparin-Derived Compounds” (Molecules, 2014)
